Data reported in patent publication US4861798A, “Lipoxygenase inhibitory compounds” (Bristol-Myers Company, priority 1987, dated 1989).

Legend:
Human Platelet 12-LPO = molecular target: T1, Human Platelet 12-LPO (Homo sapiens, UniProt P18054); assay: Inhibition of 12-LPO, human platelet; assay type: cell-based
T1 construct: Human neutrophils and platelets were obtained from the blood of normal volunteers; endogenous in cells; host or cells: human platelets from blood of normal volunteers
T1 sequence (P18054 1-663): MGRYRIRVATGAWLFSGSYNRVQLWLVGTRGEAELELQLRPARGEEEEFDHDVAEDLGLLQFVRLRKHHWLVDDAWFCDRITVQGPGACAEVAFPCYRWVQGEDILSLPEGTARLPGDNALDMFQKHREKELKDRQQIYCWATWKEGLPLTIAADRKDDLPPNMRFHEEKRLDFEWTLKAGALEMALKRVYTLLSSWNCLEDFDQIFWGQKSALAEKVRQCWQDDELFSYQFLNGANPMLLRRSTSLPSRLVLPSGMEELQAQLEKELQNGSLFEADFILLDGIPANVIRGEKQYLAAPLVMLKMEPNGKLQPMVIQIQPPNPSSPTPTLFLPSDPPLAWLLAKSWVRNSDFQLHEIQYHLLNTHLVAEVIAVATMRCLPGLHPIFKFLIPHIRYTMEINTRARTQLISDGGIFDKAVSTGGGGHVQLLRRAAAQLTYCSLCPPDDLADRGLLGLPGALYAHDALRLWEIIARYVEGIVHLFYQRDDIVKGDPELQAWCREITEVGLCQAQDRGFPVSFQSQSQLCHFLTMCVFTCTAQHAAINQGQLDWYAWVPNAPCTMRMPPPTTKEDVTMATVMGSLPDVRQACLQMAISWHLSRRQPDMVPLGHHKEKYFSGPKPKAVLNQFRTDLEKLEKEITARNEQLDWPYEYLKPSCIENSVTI

[1] = test system: inflammatory mediators prostaglandin E2, LTB4 and TxB2; assay: Carrageenan sponge implantation model, mediator production in exudate; assay type: in vivo, rat
Excerpt: (§1) The carrageenan sponge implantation model is primarily used to measure the effect of antiinflammatory agents on cell infiltration. An acute inflammatory response is stimulated by the implantation of a small sponge beneath the skin of rats. The sponge normally contains an inflammatory stimulus such as carrageenan and produces a response which is characterized by infiltration of cells and accumulation of fluid. The number of cells in the exudate can be conveniently measured in the exudate fluid.
(§2) The compound of Example I was evaluated for its local effect on cell migration and mediator production in this model. For comparison, indomethacin and BW755C were also evaluated after local application. Polyester sponges were soaked in solutions of 0.5% carrageenan (in normal saline) which also contained 1% or 5% wt/vol of the test compound. The impregnated sponge was inserted through a small incision on the dorsal surface of a lightly anesthetized rat into a subcutaneous pocket formed by blunt dissection. The incision was then closed. The control treatment consisted of a sponge soaked in 0.5% carrageenan in normal saline. Animals were sacrificed 6 hours after sponge implantation. Sponges are dissected out an placed in heparinized saline. The number of infiltrating cells were determined using a coulter counter. The inflammatory mediators prostaglandin E2, LTB4 and TxB2 in the exudate were determined by radioimmunoassay.

[2] = molecular target: T2, 5-lipoxygenase (Human Leukocyte/PMNL 5-LPO) (Homo sapiens, UniProt P09917); assay: Inhibition of 5-lipoxygenase (5-HETE formation) in human neutrophil/platelet system; assay type: cell-based; details: for IC50: FIG. 1 table, 95% confidence interval, read-out: IC50 Human PMNL 5-LPO
T2 construct: Human neutrophils and platelets were obtained from the blood of normal volunteers; endogenous in cells; host or cells: human blood leukocytes (neutrophils) of normal volunteers, with 0.1 to 0.5 platelets per leukocyte
T2 sequence (P09917 1-674): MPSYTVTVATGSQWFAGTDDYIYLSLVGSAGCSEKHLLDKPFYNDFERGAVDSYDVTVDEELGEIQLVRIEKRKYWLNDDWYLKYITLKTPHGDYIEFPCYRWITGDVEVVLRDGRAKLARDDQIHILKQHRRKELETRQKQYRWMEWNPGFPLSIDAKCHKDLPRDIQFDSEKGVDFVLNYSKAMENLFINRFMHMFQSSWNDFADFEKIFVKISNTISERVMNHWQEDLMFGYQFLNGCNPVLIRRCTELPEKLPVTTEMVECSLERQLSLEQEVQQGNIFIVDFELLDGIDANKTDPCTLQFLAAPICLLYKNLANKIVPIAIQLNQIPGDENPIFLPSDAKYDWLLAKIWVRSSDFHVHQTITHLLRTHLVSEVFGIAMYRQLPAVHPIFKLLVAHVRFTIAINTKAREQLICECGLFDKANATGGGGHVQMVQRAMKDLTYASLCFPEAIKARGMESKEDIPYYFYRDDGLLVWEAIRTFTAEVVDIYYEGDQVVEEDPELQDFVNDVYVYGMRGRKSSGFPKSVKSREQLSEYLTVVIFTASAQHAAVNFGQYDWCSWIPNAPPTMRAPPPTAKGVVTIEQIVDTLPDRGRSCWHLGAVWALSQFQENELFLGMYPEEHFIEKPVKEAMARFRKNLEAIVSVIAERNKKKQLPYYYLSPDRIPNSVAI
Excerpt: This test is a measure of the inhibition of the synthesis of lipoxygenase products generated by human neutrophils and platelets. The protocol is similar to that described in the article "Comparative Effects of Indomethacin, Acetylenic Acids, 15-HETE, NDGA and BW755C on the Metabolism of Arachidonic Acid in Human Leukocytes and Platelets", H. Solari, P. Braquet and P. Borgeat, Prost. Leuk. Med. 13, pp. 53-60, 1984.
Human neutrophils and platelets were obtained from the blood of normal volunteers. The blood was collected into tubes containing EDTA as an anticoagulant. The blood was centrifuged at 250×g for 15 minutes and the platelet rich plasma was removed. The cell fraction was mixed with an equal volume of 0.9% saline containing 10 mM dextrose and resuspended in Dulbecco's phosphate buffered saline (PBS) without Mg^++ and Ca^++ and was counted. The cell suspension was adjusted to give a leukocyte count of 2-3×10^7 cells/ml.
Test compounds were dissolved in ethanol and added to polypropylene tubes. To control tubes (drug-free) only ethanol was added. The ethanol was evaporated to dryness under a stream of argon and then 0.1 ml of the cell suspension (2-3×10^6 cells) was added. This mixture was pre-incubated for 5 minutes at 37° and then the reaction was initiated by addition of ^3 H-arachidonic acid, calcium ionophore (A23187), and calcium ion. The final concentration of each component was: arachidonic acid, 10 uM; A23187, […]; calcium ion, […]. After 5 minutes the incubations were stopped by addition of an equal volume of methanol. The tubes were spun at 11,000 g for 2 minutes to pellet the precipitated protein. The supernatant was analyzed by HPLC for 5-HETE. The formation of this product is indicative of 5-lipoxygenase activity. Test drugs were evaluated for their ability to inhibit 5-HETE formation. Percent inhibition of varying concentrations of test drugs was determined in duplicate by comparing the peak quantitation in the presence and absence (control) of drug. […] The IC50 values were calculated from log-dose response curves of pooled data from at least two experiments by linear regression analysis.
The activity was tested by the same method as in the previous example.
The enzyme inhibitory activity of these compounds was tested by the same method.

Human Platelet CO = molecular target: T3, Human Platelet CO (Homo sapiens, UniProt P23219); assay: Inhibition of CO, human platelet; assay type: cell-based; details: 95% confidence interval given for some
T3 construct: Human neutrophils and platelets were obtained from the blood of normal volunteers; endogenous in cells; host or cells: human platelets from blood of normal volunteers
T3 sequence (P23219 24-599): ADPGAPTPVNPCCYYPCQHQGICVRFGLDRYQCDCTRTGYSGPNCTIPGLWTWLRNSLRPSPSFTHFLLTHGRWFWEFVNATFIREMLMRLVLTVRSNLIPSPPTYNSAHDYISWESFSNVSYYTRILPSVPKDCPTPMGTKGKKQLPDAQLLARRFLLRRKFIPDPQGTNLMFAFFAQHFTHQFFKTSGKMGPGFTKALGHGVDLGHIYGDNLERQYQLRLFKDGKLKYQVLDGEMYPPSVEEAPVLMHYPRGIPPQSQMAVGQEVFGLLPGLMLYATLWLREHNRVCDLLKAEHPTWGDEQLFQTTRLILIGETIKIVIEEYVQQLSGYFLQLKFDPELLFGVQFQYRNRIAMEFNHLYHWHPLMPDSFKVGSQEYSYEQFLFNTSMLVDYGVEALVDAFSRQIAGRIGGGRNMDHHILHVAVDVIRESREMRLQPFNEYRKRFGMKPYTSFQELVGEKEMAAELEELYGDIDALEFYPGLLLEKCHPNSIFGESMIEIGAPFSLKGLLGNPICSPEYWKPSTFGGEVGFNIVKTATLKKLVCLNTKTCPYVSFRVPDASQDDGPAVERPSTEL

[3] = test system: cell infiltration (leukocytes); assay: Carrageenan sponge implantation model, cell infiltration; assay type: in vivo, rat; details: for Leukocyte No.: 6 h
Excerpt: as §1, §2

[4] = Experiment 1, 1% compound, control 3.6 ± 1.3
[5] = Experiment 1, 1% compound, control 10.8 ± 3.7
[6] = Experiment 1, 1% compound, control 11.8 ± 4.1
[7] = Experiment 2, 5% compound, control 19.2 ± 1.9
[8] = Experiment 2, 5% compound, control 137.6 ± 13.1
[9] = Experiment 2, 0.5% carrageenan plus 5% compound in sponge, control 33.0 ± 3.8

SMILES	inhibition at 100 µM (Human Platelet 12-LPO; @ 100 μM, read-out: % I Human Platelet 12-LPO) [%]	TXB2 [1, 4] [ng/ml Exudate]	PGE2 [1, 5] [ng/ml Exudate]	LTB4 [1, 6] [ng/ml Exudate]	LTB4 ([1]; Experiment 2, 5% compound, control 5.5 ± 0.9) [ng/ml Exudate]	TXB2 [1, 7] [ng/ml Exudate]	PGE2 [1, 8] [ng/ml Exudate]	% Inhibition at 100 μm ([2]; 4-alkoxyphenyl compounds) [%]	IC50 [2] [µM]	IC50 (Human Platelet CO) [µM]	Leukocyte No. ([3]; Experiment 1, 0.5% carrageenan plus 1% compound in sponge, control 10.8 ± 1.5)	Leukocyte No. [3, 9]	reduction of cell infiltration ([3]; dosed at 1%)	reduction of cell infiltration ([3]; dosed at 5%) [%]	activity in carrageenan sponge implantation model ([3]; in words)	IC50 (Human Platelet 12-LPO; 95% confidence interval) [µM]
O=C(CCCCCCCCc1ccccc1)NO [Compound 1, 9-Phenylnonanohydroxamic Acid]	33	0.3 ± 0.1	5.7 ± 0.9	2.1 ± 1.0	2.4 ± 0.9	4.1 ± 0.9	21.3 ± 4.1	98.3	5.7	15	6.9 ± .7 cells/ml (× 10^-6)	< 1 cells/ml (× 10^-6)	36.1%	96.1	found to have activity in this in vivo animal system	–
NC1=NN(c2cccc(C(F)(F)F)c2)CC1 [BW755C, reference compound]	–	–	–	–	–	0.8 ± 0.3	3.0 ± 1.0	–	–	–	–	6.9 ± 1.7 cells/ml (× 10^-6)	–	79	–	–
COc1ccc2c(c1)c(CC(=O)O)c(C)n2C(=O)c1ccc(Cl)cc1 [Indomethacin, reference compound]	–	< 0.5	1.9 ± 0.3	1.6 ± 0.5	–	–	–	–	–	–	–	–	did not significantly reduce cell infiltration	–	–	–
CN(O)C(=O)CCCCCCCc1ccccc1 [BMY30208, N-methyl-8-phenyloctanohydroxamic acid]	–	–	–	–	–	–	–	–	0.1	2.9	–	–	–	–	–	3.6
